Assay results: US8546575B2, “NIP thiazole derivatives as inhibitors of 11-beta-hydroxysteroid dehydroge-nase-1” (Merck Patent GmbH, priority 2008, dated 2013)

Key:
human 11-β-HSD-1 = target: T1, human 11-β-HSD-1 (Homo sapiens, UniProt P28845); assay: Inhibition of 11-β-HSD-1 enzyme assay (HTRF Cortisol), human recombinant enzyme; format: biochemical; conditions: for IC50: human recombinant enzyme from E. coli, cortisone/NADPH 200 nM/200 μM
T1 construct: made in house; host or cells: E. coli
Protocol: (§1) Human recombinant 11-beta-hydroxysteroid dehydrogenase type 1 (11-β-HSD-1) enzyme was expressed in E. coli. Rat and mice liver microsome fractions were purchased from TEBU.
(§2) The 11-β-HSD-1 enzyme assay was carried out in 96 well microtiter plates in a total volume of 100 μl containing 30 mM Hepes buffer, pH 7.4 with 1 mM EDTA, substrate mixture cortisone/NADPH (200 nM/200 μM), G-6-P (1 mM) and inhibitors in serial dilutions. Reactions were initiated by addition of 10 μl 11-β-HSD-1 (3 μg) from E. coli, either as microsome fractions from rat and mice liver (2.5 μg). Following mixing, the plates were shaken for 150 minutes at 37° C. The reactions were terminated with 10 μl Acid-18beta Glycyrrhetinic stop solution. Determinations of Cortisol levels in 11-β-HSD-1 preparations were monitored by HTRF (HTRF Cortisol assay from Cis bio international).
(§3) Activity is expressed in % of control or concentration to inhibit 50% of the enzyme activity (IC50) (table 6).

mouse 11-β-HSD-1 = target: T2, mouse 11-β-HSD-1 (Mus musculus, UniProt P50172); assay: Inhibition of 11-β-HSD-1 enzyme assay (HTRF Cortisol), mice liver microsome fractions; format: biochemical; conditions: for remaining activity at 1 µM: read-out: Inhibition of mouse 11-β-HSD-1 % of control at 1 μM
T2 construct: either as microsome fractions from rat and mice liver (2.5 μg); tissue TEBU; host or cells: mouse liver microsome fractions
T2 sequence (P50172 whole entry): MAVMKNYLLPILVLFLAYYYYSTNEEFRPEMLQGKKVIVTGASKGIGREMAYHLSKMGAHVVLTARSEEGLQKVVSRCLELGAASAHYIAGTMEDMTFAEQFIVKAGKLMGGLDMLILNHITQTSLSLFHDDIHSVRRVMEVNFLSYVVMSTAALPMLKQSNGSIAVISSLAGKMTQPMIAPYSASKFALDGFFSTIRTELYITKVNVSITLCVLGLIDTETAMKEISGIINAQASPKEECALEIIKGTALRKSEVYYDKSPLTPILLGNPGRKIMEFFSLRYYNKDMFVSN
Protocol: as §1, §2, §3

normal patients = conditions: cited from earlier work
humans = conditions: cited from earlier work

T1 sequence (P28845 whole entry): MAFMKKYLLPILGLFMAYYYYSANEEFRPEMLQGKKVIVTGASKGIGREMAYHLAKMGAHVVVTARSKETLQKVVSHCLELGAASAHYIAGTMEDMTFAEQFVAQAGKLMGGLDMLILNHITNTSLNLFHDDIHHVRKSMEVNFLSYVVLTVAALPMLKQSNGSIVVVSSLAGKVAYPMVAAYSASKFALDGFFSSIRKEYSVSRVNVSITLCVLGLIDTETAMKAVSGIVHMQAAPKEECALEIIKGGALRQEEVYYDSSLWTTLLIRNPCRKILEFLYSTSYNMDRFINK

Row | SMILES | IC50 (human 11-β-HSD-1) | IC50 (mouse 11-β-HSD-1) | further results
1 | O=C(c1csc(C2CCNCC2)n1)N(C1CCCCC1)C1CC1 [Compound 1.1, 2-Piperidin-4-yl-thiazole-4-carboxylic acid cyclohexyl-cyclopropyl-amide] | 1200 nM | 290 nM | –
2 | O=C(c1csc(C2CCNCC2)n1)N1CCCC2CCCCC21 (stereo not shown) [Compound 1.2, (Octahydro-quinolin-1-yl)-(2-piperidin-4-yl-thiazol-4-yl)-methanone] | – | – | remaining activity at 1 µM (human 11-β-HSD-1; at 1 μM, human recombinant enzyme, read-out: Inhibition of human 11-β-HSD-1 % of control at 1 μM): 27%
3 | CC(C)(C)CC(=O)N1CCC(c2nc(C(=O)N3CCCC4CCCCC43)cs2)CC1 (stereo not shown) [Compound 2.1, 3,3-Dimethyl-1-{4-[4-(octahydro-quinoline-1-carbonyl)-thiazol-2-yl]-piperidin-1-yl}-butan-1-one] | 92 nM | – | remaining activity at 1 µM (mouse 11-β-HSD-1): 51%
4 | O=C(CCC1CCCC1)N1CCC(c2nc(C(=O)N(C3CCCCC3)C3CC3)cs2)CC1 [Compound 2.7, 2-[1-(3-Cyclopentyl-propionyl)-piperidin-4-yl]-thiazole-4-carboxylic acid cyclohexyl-cyclopropyl-amide] | 420 nM | 630 nM | –
5 | O=C(C1CCCCC1)N1CCC(c2nc(C(=O)N3CCCC4CCCCC43)cs2)CC1 (stereo not shown) [Compound 2.17, [2-(1-Cyclohexanecarbonyl-piperidin-4-yl)-thiazol-4-yl]-(octahydro-quinolin-1-yl)-methanone] | 200 nM | 340 nM | –
6 | O=C(C1CCCC1)N1CCC(c2nc(C(=O)N3CCCC4CCCCC43)cs2)CC1 (stereo not shown) [Compound 2.18, [2-(1-Cyclopentanecarbonyl-piperidin-4-yl)-thiazol-4-yl]-(octahydro-quinolin-1-yl)-methanone] | 130 nM | 490 nM | –
7 | CCC(C)NC(=O)N1CCC(c2nc(C(=O)N3CCCC4CCCCC43)cs2)CC1 (stereo not shown) [Compound 3.1, 4-[4-(Octahydro-quinoline-1-carbonyl)-thiazol-2-yl]-piperidine-1-carboxylic acid sec-butylamide] | 270 nM | 470 nM | –
8 | CCCCCNC(=O)N1CCC(c2nc(C(=O)N3CCCC4CCCCC43)cs2)CC1 (stereo not shown) [Compound 3.7, 4-[4-(Octahydro-quinoline-1-carbonyl)-thiazol-2-yl]-piperidine-1-carboxylic acid pentylamide] | 340 nM | 59 nM | –
9 | COc1ccc(CNC(=O)N2CCC(c3nc(C(=O)N4CCCC5CCCCC54)cs3)CC2)cc1 (stereo not shown) [Compound 3.22, 4-[4-(Octahydro-quinoline-1-carbonyl)-thiazol-2-yl]-piperidine-1-carboxylic acid 4-methoxy-benzylamide] | 53 nM | 500 nM | –
10 | O=C(c1csc(C2CCN(S(=O)(=O)C(F)(F)F)CC2)n1)N1CCCC2CCCCC21 (stereo not shown) [Compound 4.1, (Octahydro-quinolin-1-yl)-[2-(1-trifluoromethanesulfonyl-piperidin-4-yl)-thiazol-4-yl]-methanone] | 32 nM | 330 nM | –
11 | CCCCS(=O)(=O)N1CCC(c2nc(C(=O)N3CCCC4CCCCC43)cs2)CC1 (stereo not shown) [Compound 4.2, {2-[1-(Butane-1-sulfonyl)-piperidin-4-yl]-thiazol-4-yl}-(octahydro-quinolin-1-yl)-methanone] | 93 nM | 210 nM | –
12 | O=C(c1csc(C2CCN(S(=O)(=O)c3cccs3)CC2)n1)N(C1CCCCC1)C1CC1 [Compound 4.11, 2-[1-(Thiophene-2-sulfonyl)-piperidin-4-yl]-thiazole-4-carboxylic acid cyclohexyl-cyclopropyl-amide] | 720 nM | – | –
13 | O=C(c1csc(C2CCN(S(=O)(=O)CCc3ccncc3)CC2)n1)N(C1CCCCC1)C1CC1 [Compound 4.18, 2-[1-(2-Pyridin-4-yl-ethanesulfonyl)-piperidin-4-yl]-thiazole-4-carboxylic acid cyclohexyl-cyclopropyl-amide] | 1000 nM | – | remaining activity at 1 µM (mouse 11-β-HSD-1): 49%
14 | COc1ccc(S(=O)(=O)N2CCC(c3nc(C(=O)N(C4CCCCC4)C4CC4)cs3)CC2)cc1 [Compound 4.20, 2-[1-(4-Methoxy-benzenesulfonyl)-piperidin-4-yl]-thiazole-4-carboxylic acid cyclohexyl-cyclopropyl-amide] | 280 nM | 1000 nM | –
15 | CC1(C)[C@@H](OC(=O)CCC(=O)O)CC[C@]2(C)[C@H]3C(=O)C=C4[C@@H]5C[C@@](C)(C(=O)O)CC[C@]5(C)CC[C@@]4(C)[C@]3(C)CC[C@@H]12 [carbenoxolone] | – | – | reduction of the intraocular pressure (normal patients): 20%; hepatic insulin sensitivity (humans): improved hepatic insulin sensitivity
